Assay [1] can be described thus: CAL PDZ domain peptide-binding inhibitors, dose response, biochemical, fluorescence polarization, untagged CAL PDZ, dry powder (AID 602255). The class given is functional. Background: Fluorescence polarisation rises when a labelled molecule tumbles more slowly, as on binding a larger partner.
The target in assay [2] is Polyadenylate-binding protein 1 (Homo sapiens, UniProt P11940). The assay is described as follows: PABP1 MLLE–PAM2 binding inhibitor potency, dose response, biochemical, fluorescence polarization, FITC-PAM2 peptide (AID 602259). The class given is functional. The settings on record: read-out: IC50_Mean.
In assay [3] the target is T1, Zinc finger protein mex-5 (Caenorhabditis elegans, UniProt Q9XUB2).
T1 sequence (Q9XUB2 whole entry): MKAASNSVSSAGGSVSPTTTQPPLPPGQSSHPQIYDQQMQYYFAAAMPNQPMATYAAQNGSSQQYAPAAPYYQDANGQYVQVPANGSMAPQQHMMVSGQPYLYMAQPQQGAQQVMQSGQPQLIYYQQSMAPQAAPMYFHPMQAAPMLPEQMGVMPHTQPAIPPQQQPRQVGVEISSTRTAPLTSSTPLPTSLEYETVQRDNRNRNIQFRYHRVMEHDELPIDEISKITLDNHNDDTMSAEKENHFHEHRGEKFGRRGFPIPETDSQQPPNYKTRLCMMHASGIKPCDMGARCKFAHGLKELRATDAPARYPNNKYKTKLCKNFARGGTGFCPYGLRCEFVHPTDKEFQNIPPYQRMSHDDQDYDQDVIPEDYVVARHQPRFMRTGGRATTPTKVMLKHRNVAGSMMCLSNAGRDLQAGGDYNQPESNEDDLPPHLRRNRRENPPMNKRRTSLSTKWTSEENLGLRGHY
Put plainly: MEX-5/TCR-2 RNA interaction inhibitors, dose response, biochemical, C. elegans, fluorescence polarization (AID 1960).

Assay [4] deals with Vero. The assay is described as follows: Vero cell cytotoxicity, cytotoxicity control for flavivirus capping enzyme inhibitors (AID 588742). The settings on record: Chlorocebus sabaeus. Format: functional.
Assay [5] has as its target T2, Oxysterols receptor LXR-beta (Homo sapiens, UniProt P55055).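 Further: Cell-based luminescence dose-response assay of agonist activity at LXR, run as a confirmatory counterscreen to a daf-12 agonist screen; HEK293 cells with Gal4-LXR fusion and GAL4-driven luciferase reporter; agonist potency from rising luciferase signal of a Gal4-LXR reporter.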
T2 sequence (P55055 whole entry): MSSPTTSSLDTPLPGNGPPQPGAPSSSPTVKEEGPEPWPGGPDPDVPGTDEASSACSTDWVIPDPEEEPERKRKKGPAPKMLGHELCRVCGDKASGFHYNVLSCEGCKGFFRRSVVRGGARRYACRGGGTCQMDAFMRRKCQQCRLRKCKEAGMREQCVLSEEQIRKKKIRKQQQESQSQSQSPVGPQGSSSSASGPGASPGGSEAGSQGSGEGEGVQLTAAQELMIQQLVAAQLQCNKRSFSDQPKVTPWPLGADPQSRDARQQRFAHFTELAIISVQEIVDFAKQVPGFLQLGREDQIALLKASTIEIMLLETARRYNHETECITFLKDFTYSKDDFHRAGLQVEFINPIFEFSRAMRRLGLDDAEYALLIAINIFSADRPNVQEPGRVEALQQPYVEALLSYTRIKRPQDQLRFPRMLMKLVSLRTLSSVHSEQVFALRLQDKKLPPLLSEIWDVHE
Format: functional, cell-based.

Assay [6] concerns the target T3, Sentrin-specific protease 6 (Homo sapiens, UniProt Q9GZR1).
T3 sequence (Q9GZR1 whole entry): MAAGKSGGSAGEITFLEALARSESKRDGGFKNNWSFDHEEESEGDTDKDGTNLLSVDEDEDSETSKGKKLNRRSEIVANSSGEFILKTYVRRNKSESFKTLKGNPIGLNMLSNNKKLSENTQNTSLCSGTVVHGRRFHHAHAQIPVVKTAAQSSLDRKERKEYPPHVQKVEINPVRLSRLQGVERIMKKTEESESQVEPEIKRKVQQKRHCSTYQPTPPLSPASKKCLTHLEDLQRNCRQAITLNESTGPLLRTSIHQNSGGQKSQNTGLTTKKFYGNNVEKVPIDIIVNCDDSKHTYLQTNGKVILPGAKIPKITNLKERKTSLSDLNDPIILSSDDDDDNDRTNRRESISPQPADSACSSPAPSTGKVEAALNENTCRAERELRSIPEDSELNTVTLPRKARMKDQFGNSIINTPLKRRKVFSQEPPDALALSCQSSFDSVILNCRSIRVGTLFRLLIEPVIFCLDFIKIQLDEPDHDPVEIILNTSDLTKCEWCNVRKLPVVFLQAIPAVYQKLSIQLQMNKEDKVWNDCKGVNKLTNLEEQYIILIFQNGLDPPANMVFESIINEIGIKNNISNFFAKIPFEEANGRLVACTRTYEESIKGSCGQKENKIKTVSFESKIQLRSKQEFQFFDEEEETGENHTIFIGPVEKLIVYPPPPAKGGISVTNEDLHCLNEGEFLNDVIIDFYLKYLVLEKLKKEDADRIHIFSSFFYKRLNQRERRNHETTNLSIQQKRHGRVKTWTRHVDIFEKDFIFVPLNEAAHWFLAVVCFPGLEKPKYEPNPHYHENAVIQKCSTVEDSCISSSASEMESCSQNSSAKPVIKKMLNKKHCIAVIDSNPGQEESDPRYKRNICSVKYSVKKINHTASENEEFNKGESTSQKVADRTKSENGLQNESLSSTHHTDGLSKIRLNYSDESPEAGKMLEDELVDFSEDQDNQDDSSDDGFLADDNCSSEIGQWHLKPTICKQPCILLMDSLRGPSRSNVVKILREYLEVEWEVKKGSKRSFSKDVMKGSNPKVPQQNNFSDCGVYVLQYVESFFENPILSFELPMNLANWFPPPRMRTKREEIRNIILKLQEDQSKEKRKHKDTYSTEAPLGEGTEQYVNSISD
Put plainly: SENP6 protease inhibitors, SAR follow-up, biochemical, luminescence, set 2 (AID 588598). Format: functional.

For assay [7], the target named is T3, Sentrin-specific protease 6. The assay is described as follows: SAR Analysis of small molecule inhibitors of Sentrin-specific protease 6 (SENP6) using a Luminescent assay. [Related pubchem assays (depositor defined):AID2582, AID2599]. Format: functional.
A short description of assay [8]: nonselective inhibitors of cellular cAMP signaling, dose response, counter-screen for MC4R biased antagonist project, cell-based, TR-FRET cAMP detection (AID 602305).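 Further: U2OS cells stimulated with forskolin near its EC80 as the cAMP inducer; potency is for inhibition of forskolin-stimulated cAMP signaling.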 Format: functional. (In general: The purpose of a counterscreen is to sort out artefacts and off-target activity.)

These results are taken from ChEMBL document CHEMBL1201862, “PubChem BioAssay data set” (2004).

Calls of active or inactive are those of the source.

The AC50 is the concentration giving half of the maximal activity seen. In general, EC50 refers to the concentration that produces a half-maximal response. As usually defined, the CC50 is the concentration that lowers cell viability or growth by half.

Polyadenylate-binding protein 1, sequence (P11940 whole entry): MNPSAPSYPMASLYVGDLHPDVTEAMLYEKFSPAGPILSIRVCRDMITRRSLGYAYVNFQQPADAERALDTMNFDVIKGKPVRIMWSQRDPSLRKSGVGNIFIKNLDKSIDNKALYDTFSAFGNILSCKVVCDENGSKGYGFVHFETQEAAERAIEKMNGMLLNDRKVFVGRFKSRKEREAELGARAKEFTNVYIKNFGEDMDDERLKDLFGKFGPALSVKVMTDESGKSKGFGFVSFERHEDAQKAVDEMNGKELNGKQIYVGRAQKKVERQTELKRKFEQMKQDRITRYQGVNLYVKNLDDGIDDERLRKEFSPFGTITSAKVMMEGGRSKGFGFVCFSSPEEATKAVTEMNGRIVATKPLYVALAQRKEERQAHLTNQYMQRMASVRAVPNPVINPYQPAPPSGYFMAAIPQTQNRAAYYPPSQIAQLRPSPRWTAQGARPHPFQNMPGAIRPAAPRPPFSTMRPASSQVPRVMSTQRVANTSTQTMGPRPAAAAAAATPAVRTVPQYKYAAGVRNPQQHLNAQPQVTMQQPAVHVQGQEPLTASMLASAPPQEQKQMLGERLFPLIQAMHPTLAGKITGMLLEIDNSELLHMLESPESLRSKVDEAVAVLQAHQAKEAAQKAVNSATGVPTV

On to `O=C(O)CSc1cc(NS(=O)(=O)c2ccc(Cl)cc2)c2ccccc2c1O`, for which the AC50 in assay [1] was 56.1 µM (active). Also, the IC50 in assay [2] is > 66 µM (inactive). Also, the EC50 in assay [3] is 6.3 µM (active). Also, the cytotoxic concentration (CC50) in assay [4] was 33.2 µM (active).
As to `Oc1ccccc1/C=C/c1noc(-c2ccccc2O)n1`, in assay [5], the EC50 is > 67.6 µM (inactive). In addition, the IC50 in assay [6] was 62.4 µM (active); in assay [7], > 99 µM (inactive).
Take `Cc1nn(-c2ccccc2)c(Cl)c1CN(C(=O)CCl)c1ccc(Cl)cc1`: the IC50 in assay [8] is > 64.6 µM (inactive).
